PMC10269561, “Absence of Clinically Meaningful Drug-Drug Interactions with Rezafungin: Outcome of Investigations” (Microbiology Spectrum, 2023)
Like-named read-outs stand apart in the source and are kept apart here.

Conditions: for AUC0–t, geometric LSM value, alone / AUC0–∞, geometric LSM value, alone / Cmax, geometric LSM value, alone / AUC0–t, geometric LSM value, + rezafungin / AUC0–∞, geometric LSM value, + rezafungin / Cmax, geometric LSM value, + rezafungin: Study 1, healthy subjects, plasma, LC-MS/MS, NCA; for Observation, Cmax (change with rezafungin relative to drug alone): class symbol; for AUC0–t, geometric mean ratio (drug + rezafungin / drug alone) / AUC0–∞, geometric mean ratio (drug + rezafungin / drug alone) / Cmax, geometric mean ratio (drug + rezafungin / drug alone): geometric LSM ratio x 100, ANOVA
Procedure: Both were phase 1, single-center, open-label, crossover inpatient studies that were conducted in the United States in healthy adults (study 1, aged 26 to 55 years; study 2, aged 21 to 59 years). The studies were compliant with the International Council for Harmonisation of Technical Requirements for Pharmaceuticals for Human Use E6 guideline for good clinical practice ([54]) and the Declaration of Helsinki. The study protocols were approved by the institutional review board associated with the study site, and all subjects provided written informed consent.
After screening, subjects were admitted to the clinical research unit (CRU) prior to the first dose of rezafungin (from day −22) and were discharged from the CRU on day 22. Nine oral substrate drugs were administered as part of a cocktail containing two or more drugs once before and once after receiving rezafungin on a schedule designed to allow the washout of the drugs in the cocktail between doses and limit interactions with other drugs (Fig. 4A). […] A loading dose of rezafungin for injection (600 mg) was administered over 1 h on day 1, followed by two once-weekly 400-mg doses over 1 h on days 10 and 15. Due to a short delay in the availability of the investigation study drug, the second once-weekly dose of rezafungin and the second set of oral substrate drugs were administered on day 10 instead of day 8, although the time between doses remained sufficient for all originally planned PK samplings through 96 h postdose and for the adequate washout of the substrate drugs. The total duration of treatment was up to 89 days, including 45 days of screening and 44 days of treatment in the CRU.
In study 1, predose PK blood samples were collected on each dosing day ≤60 min prior to the administration of the substrate drugs with or without rezafungin. Multiple blood samples were collected relative to each dose, with collection times ranging from 15 min to 168 h postdose, depending on the PK profile of each probe substrate drug (Table S5). For study 2, multiple blood samples were collected, and the timing of collection varied according to the PK profile of each coadministered drug from predose to 96 h postdose (Table S6). PK blood samples were collected for rezafungin at sample times ranging from predose to 168 h postdose.
For both studies, validated liquid chromatography-tandem mass spectrometry (LC-MS/MS) methods were used for PK assessments to analyze the concentrations of rezafungin and coadministered drugs. All plasma concentrations and actual blood sampling times were subjected to noncompartmental PK analysis. PK parameter calculations were performed using noncompartmental analysis (NCA) (Phoenix WinNonlin version 8.0 or higher). The PK parameters analyzed included Cmax; the time to reach the maximum observed plasma concentration (Tmax); AUC0–t (using the log-linear trapezoidal rule, where t was the last time point with a measurable concentration); AUC0–∞ (calculated as AUC0–t + Clast/λz); the AUC from 0 to 168 h (AUC0–168); the percentage of AUC0–∞ extrapolated (AUC%Extrap); the terminal elimination rate constant, determined by linear regression of the terminal linear segment of the log concentration-versus-time curve (λz); and the elimination half-life (t1/2), calculated as ln(2)/λz.
The primary analysis of the drug interaction effect on substrate drugs following rezafungin administration was assessed by the ratio of the geometric least-squares (LS) mean of each substrate drug administered with rezafungin to that without rezafungin. […] PK parameters were statistically analyzed using an analysis of variance (ANOVA) model. […] However, noncompliance with these no-effect boundaries was not considered evidence of a significant DDI. Statistical analyses were performed using SAS (version 9.4) and the mixed procedure. Adverse events were descriptively summarized.

[1] = oral tacrolimus 5 mg or rosuvastatin 5 mg without rezafungin
[2] = oral tacrolimus 5 mg with i.v. rezafungin 600 mg (day 1)
[3] = Study 1, AUC0–t and AUC0–∞, from geometric mean ratio
[4] = Study 1, rezafungin 600 mg i.v.
[5] = oral repaglinide 1 mg with i.v. rezafungin 600 mg (day 1)
[6] = oral repaglinide 1 mg, metformin 500 mg, pitavastatin 2 mg, caffeine 100 mg, efavirenz 50 mg, midazolam 2 mg or digoxin 0.25 mg without rezafungin
[7] = Study 1, from geometric mean ratio
[8] = oral rosuvastatin 5 mg with i.v. rezafungin 400 mg (day 10)
[9] = Study 1, rezafungin 400 mg i.v. (day 10 or 15)

## C=CC[C@@H]1/C=C(\C)C[C@H](C)C[C@H](OC)[C@H]2O[C@@](O)(C(=O)C(=O)N3CCCC[C@H]3C(=O)O[C@H](/C(C)=C/[C@@H]3CC[C@@H](O)[C@H](OC)C3)[C@H](C)[C@@H](O)CC1=O)[C@H](C)C[C@@H]2OC [Tacrolimus]
[1]
  AUC0–t, geometric LSM value, alone: 309,698.20 pg · h/mL
  AUC0–∞, geometric LSM value, alone: 328,990.49 pg · h/mL
  Cmax, geometric LSM value, alone: 30,489.62 pg/mL
[2]
  AUC0–t, geometric LSM value, + rezafungin: 266,002.13 pg · h/mL
  AUC0–∞, geometric LSM value, + rezafungin: 283,328.47 pg · h/mL
  Cmax, geometric LSM value, + rezafungin: 28,909.40 pg/mL
[3]
  Magnitude of decrease in AUC with rezafungin vs drug alone: ~14%
Study 1
  Observation, Cmax (change with rezafungin relative to drug alone): ↔ (no change (the ratio of the PK parameter value varied by up to ~10%, and the 90% CI was within 80 to 125%))
[4]
  AUC0–t, geometric mean ratio (drug + rezafungin / drug alone): 85.89%
  AUC0–∞, geometric mean ratio (drug + rezafungin / drug alone): 86.12%
  Cmax, geometric mean ratio (drug + rezafungin / drug alone): 94.82%

## CCOc1cc(CC(=O)N[C@@H](CC(C)C)c2ccccc2N2CCCCC2)ccc1C(=O)O [Repaglinide]
[5]
  AUC0–t, geometric LSM value, + rezafungin: 23.47 ng·h/mL
  AUC0–∞, geometric LSM value, + rezafungin: 25.16 ng·h/mL
  Cmax, geometric LSM value, + rezafungin: 12.13 ng/mL
[6]
  AUC0–t, geometric LSM value, alone: 20.25 ng·h/mL
  AUC0–∞, geometric LSM value, alone: 21.74 ng·h/mL
  Cmax, geometric LSM value, alone: 11.86 ng/mL
Study 1
  Observation, Cmax (change with rezafungin relative to drug alone): ↔ (no change (the ratio of the PK parameter value varied by up to ~10%, and the 90% CI was within 80 to 125%))
[7]
  Magnitude of increase in AUC0–∞ with rezafungin vs drug alone: ~16%
[4]
  AUC0–t, geometric mean ratio (drug + rezafungin / drug alone): 115.87%
  AUC0–∞, geometric mean ratio (drug + rezafungin / drug alone): 115.75%
  Cmax, geometric mean ratio (drug + rezafungin / drug alone): 102.26%

## C[C@H]1O[C@@H](O[C@H]2[C@@H](O)C[C@H](O[C@H]3[C@@H](O)C[C@H](O[C@H]4CC[C@@]5(C)[C@H](CC[C@@H]6[C@@H]5C[C@@H](O)[C@]5(C)[C@@H](C7=CC(=O)OC7)CC[C@]65O)C4)O[C@@H]3C)O[C@@H]2C)C[C@H](O)[C@@H]1O [Digoxin]
Study 1, 90% CIs of GMRs of Cmax, AUC0–t, AUC0–∞ within 80 to […]
  Change in exposure of the oral probe drug on coadministration of i.v. rezafungin vs dosing alone: did not result in statistically significant changes

## CC(C)c1nc(N(C)S(C)(=O)=O)nc(-c2ccc(F)cc2)c1/C=C/[C@@H](O)C[C@@H](O)CC(=O)O [Rosuvastatin]
[8]
  AUC0–t, geometric LSM value, + rezafungin: 31,027.38 pg · h/mL
  AUC0–∞, geometric LSM value, + rezafungin: 32,386.11 pg · h/mL
  Cmax, geometric LSM value, + rezafungin: 3,683.66 pg/mL
[1]
  AUC0–t, geometric LSM value, alone: 26,949.43 pg · h/mL
  AUC0–∞, geometric LSM value, alone: 28,521.34 pg · h/mL
  Cmax, geometric LSM value, alone: 3,294.35 pg/mL
[3]
  Magnitude of increase in AUC with rezafungin vs drug alone: ~15%
[7]
  Magnitude of increase in AUC0–∞ with rezafungin vs drug alone: approximately 14%
  Magnitude of increase in Cmax with rezafungin vs drug alone: ~12%
[9]
  AUC0–t, geometric mean ratio (drug + rezafungin / drug alone): 115.13%
  AUC0–∞, geometric mean ratio (drug + rezafungin / drug alone): 113.55%
  Cmax, geometric mean ratio (drug + rezafungin / drug alone): 111.82%
